Each structure is given as a SMILES string.

For data set [1], the system named is K-ras LSL/+ /Pten fl/fl ovarian adenocarcinomas. In words: In vivo murine ovarian cancer tumor model (bioluminescence). Also noted: species or system mice.
Procedure: Ovarian adenocarcinomas were induced in genetically-engineered K-ras^LSL/+/Pten^fl/fl mice via intrabursal delivery of adenovirus carrying Cre recombinase, as described previously. Tumor cells were engineered to express luciferase once activated by Adeno-Cre, in order to make tumor imaging feasible before and after drug treatment.
Statistical analysis of the toxicity data was analyzed using a one-way ANOVA test with the Prism 5™ software.
Data set [2] relates to cisplatin-resistant cancer cell line (CP20). In words: Liponanoparticle cell viability MTS assay, CP20. The data set is classed as cell-based. How it is done: (§1) In a 96 well plate, 2×10^3 cells were plated. After 4 h, cells were treated with different concentrations of free drug or lipo-nanoparticles. Cells without any treatment were kept as control. After 48 h, cell viability was assessed using standard MTS assay according to manufacturer's instructions.
On the technique in general: Tetrazolium dyes change colour on reduction, which living cells bring about.

Data set [3] relates to Lewis Lung Carcinoma cell lines (LLC). In words: MTS cell viability assay, LLC cells. The class given is cell-based, murine. The conditions noted are these: for EC50: cisplatin-equivalent concentration; for IC50: 48 hours post-incubation, read-out: IC50 (LLC cell kill). The text has this:
The absorbance reflects the number of surviving cells.

Another data set concerns 4T1 breast cancer. The settings on record: mouse, in vivo. The method, then: (§2) The LLC Lung Cancer cells and 4T1 Breast Cancer cells ([…]) were implanted subcutaneously in the flanks of 4-week-old C57/BL6 and BALB/c mice (weighing 20 g, Charles River Laboratories, MA) respectively. The drug therapy was started after the tumors attained volume of 50 mm^3. […] PBS (100 μL) administered by tail-vein injection was used as a control for drug treatment. The tumor volumes and body weights were monitored on a daily basis. The animals were sacrificed when the average tumor size of the control exceeded 2000 mm^3 in the control group. The tumors were harvested immediately following sacrifice and stored in 10% formalin for further analysis. All animal procedures were approved by Harvard institutional IUCAC.
(§3) The tissues were fixed in 10% formalin, paraffin embedded, sectioned and stained with H&E at the Harvard Medical School Core Facility. Tumor and Kidney paraffin sections were deparaffinized and stained with standard TMR-red fluorescent terminal deoxynucleotidyl transferase-mediated dUTP nick end labeling (TUNEL) kit following the manufacturer's protocol (In Situ Cell Death Detection Kit, TMR Red, Roche). Images were obtained using a Nikon Eclipse TE2000 fluorescence microscope equipped with red filter.
(§4) Body weights were recorded daily to assess toxicity. In addition, livers and spleens were removed at the end of treatment to record weights and perform extensive pathological examination to assess toxicity of vital organs. Cell apoptosis in vital organs was measured using TUNNEL assay. Statistical analysis of the toxicity data was performed using a two-way ANOVA test with the Prism 5™ software.

The subject of a further data set is Lewis lung carcinoma. How it is done:
as §2, §3, §4

In data set [4] the test system is Lewis lung cancer cell line (LLC). The data set is described as follows: Liponanoparticle cell viability MTS assay, LLC. The class given is cell-based. How it is done:
as §1

The next data set has as its system 4T1 breast cancer cells. The data set is described as follows: Liponanoparticle cell viability MTS assay, 4T1. The data set is classed as cell-based. The settings on record: three time points. The method, then: In a 96 well plate, 2×10^3 cells were plated. After 4 h, cells were treated with different concentrations of free drug or lipo-nanoparticles. Cells without any treatment were kept as control. […]

`N.N.[Cl][Pt][Cl]` [Cisplatin, cis-dichlorodiammineplatinum(II)]: in data set [1] (3 mg/kg or equivalent Pt concentration), the “apoptosis in the kidney (TUNEL)” value is recorded as “significant apoptosis in the kidney”. In addition, the body weight entry in data set [1] (daily recording) was “significant loss of body weight”. The “effect on viability of CP20 cells” value in data set [2] is reported as “only at the highest concentration”. Further, in data set [3] (48 h), the “effect on LLC cell viability” value is “identical cell kill”. Besides, in data set [3] (LLC cells), the “concentration for complete cell kill” value is recorded as “greater than 20 uM” and the IC50 amounted to 3.87 ± 0.37 µM. Besides, the EC50 in data set [3] (LLC cells, 48 h) amounted to 3.87 ± 0.37 µM. Also, the “apoptosis in the kidney” value with 4T1 breast cancer was “significant apoptosis in the kidney”. For the same compound, the tumor growth inhibition result with Lewis lung carcinoma (dose equivalent to 1.25 mg/kg of cisplatin, three doses i.v.) is “only a minor tumor growth inhibition”. Also, in the data set with Lewis lung carcinoma (mouse, in vivo), the “apoptosis in kidney (TUNEL)” value is given as “significant apoptosis”, the “apoptosis in tumor (TUNEL)” value is recorded as “significant induction of apoptosis” and the “kidney H&E pathology” value is given as “significant tubular necrosis”. In the data set on Lewis lung carcinoma (three doses i.v., 1.25 and 3 mg/kg), the “tumor inhibition, dose dependence” value is listed as “dose-dependent tumor inhibition”.
Consider `N.N.O=C([O-])C1(C(=O)[O-])CCC1.[Pt+2]` [Carboplatin, cis-Diammine-(1,1-cyclobutanedicarboxylato) platinum(II)], for which the “effect on viability of CP20 cells” value in data set [2] was “no effect at this concentration range”. In data set [4], the “effect on viability of LLC cells” value is “no effect at this concentration range”. In addition, the “effect on viability of 4T1 breast cancer cells” value in the data set on 4T1 breast cancer cells is reported as “least effective of all platinates tested”. The EC50 in data set [3] (LLC cells, 48 h) was 14.8 ± 0.38 µM. Besides, in data set [3] (LLC cells), the IC50 was 14.8 ± 0.38 µM.

What is called EC50 is the concentration giving half of the maximal effect. As usually defined, the IC50 is the point on the concentration scale where inhibition reaches its midpoint.

The record behind these values is US10512696B2, “Nanoscale platinum compounds and methods of use thereof” (priority 2009, dated 2019).
